One assay has as its system 786-0 cells. Description: Sunitinib dose-response proliferation assay. Format: cell-based. As to conditions: Homo sapiens. Here is the method: (§1) AR expression was also assessed in other RCC cell lines (FIG. 1E).
The next assay has as its system 786-OAR cells. The assay can be described thus: Sunitinib dose-response proliferation assay, AR-overexpressing cells. As to conditions: Homo sapiens; 786-OAR (786-0 overexpressing ARwt). In kind it is cell-based. Here is the method: as §1
Assay [1] concerns AR+ RCC cell lines (786-0R, UMRC2, Caki2). The assay can be described thus: Crystal violet cell viability assay, AR+ RCC cell lines. Format: cell-based, human. On the procedure: as §1
The test system of assay [2] is AR targeted genes (KLK2, KLK4, ZBTB16, MYC). Description: q-PCR of AR targeted genes after sunitinib. In kind it is cell-based, human. As to conditions: 786-0R and UMRC2 cells, sunitinib treatment. On the procedure:
RNA was extracted in accordance with manufacturer's protocol (miRNeasy; Qiagen), and RNA sequencing was performed as previously described (25). In brief, RNA illumine sequencing reads were de-multiplex, aligned against human genome (hg19), and results aligned to BAM formatted sequence alignment map via cufflinks program. Differential expressed transcripts were identified between 786-0 and 786-0R samples, and ranked based on the square root of the sum of squares for the log 2 fold change. For qRT-PCR analysis, gene expression assessment on AR target genes was performed using the Prime PCR array (Bio-Rad) according to manufacturer's protocol. AR primer used is forward primer; 5-[…]-3 (SEQ ID NO:1) and reverse primer; 5-[…]-3 (SEQ ID NO:2). In brief, the denaturation step was carried out at 95° C. for 10 seconds; the annealing step was carried out at 58° C. for 30 seconds, and extension step at 72° C. for 1 minute using the applied Biosystems 7900HT fast real-time PCR system (Applied Biosystems). Sequence Detection Systems Software v2.3 was used to identify cycle threshold (Ct) values and generate gene expression curves. All data were normalized to either GAPDH expression.
Gene expression of AR targeted genes was then examined in the presence or absence of sunitinib treatment.

Assay [3] addresses T1, androgen receptor (Homo sapiens, UniProt P10275).
T1 construct: Baseline AR expression was high in 786-0R and UMRC2 cells; host or cells: 786-0, 786-0R, UMRC2
T1 sequence (P10275 1-920): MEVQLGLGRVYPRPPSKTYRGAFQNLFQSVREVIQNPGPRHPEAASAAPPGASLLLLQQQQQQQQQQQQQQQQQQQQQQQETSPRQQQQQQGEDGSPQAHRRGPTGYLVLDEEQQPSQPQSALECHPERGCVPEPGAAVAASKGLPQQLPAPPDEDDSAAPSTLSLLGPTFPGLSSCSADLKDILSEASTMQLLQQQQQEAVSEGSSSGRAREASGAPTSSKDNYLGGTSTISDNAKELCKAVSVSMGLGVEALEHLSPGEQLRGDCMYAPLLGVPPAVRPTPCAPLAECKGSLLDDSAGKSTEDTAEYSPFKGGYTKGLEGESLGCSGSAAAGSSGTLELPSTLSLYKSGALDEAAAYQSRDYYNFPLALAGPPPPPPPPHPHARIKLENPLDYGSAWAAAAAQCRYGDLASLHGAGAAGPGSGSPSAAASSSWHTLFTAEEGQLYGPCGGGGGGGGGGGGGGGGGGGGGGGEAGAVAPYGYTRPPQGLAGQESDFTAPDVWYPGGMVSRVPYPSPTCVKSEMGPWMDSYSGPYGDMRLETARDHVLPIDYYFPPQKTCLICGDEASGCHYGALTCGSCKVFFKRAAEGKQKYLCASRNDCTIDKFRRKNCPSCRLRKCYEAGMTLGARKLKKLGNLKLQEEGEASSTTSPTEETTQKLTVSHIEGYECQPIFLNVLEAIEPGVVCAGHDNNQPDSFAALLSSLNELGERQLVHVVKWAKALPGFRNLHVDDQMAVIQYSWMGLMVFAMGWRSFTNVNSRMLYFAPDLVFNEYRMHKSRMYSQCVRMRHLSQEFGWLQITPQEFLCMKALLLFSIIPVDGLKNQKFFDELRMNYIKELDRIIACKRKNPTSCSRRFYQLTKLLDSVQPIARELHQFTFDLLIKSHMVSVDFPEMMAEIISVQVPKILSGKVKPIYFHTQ
Description: AR expression by immunofluorescence in RCC cells (sunitinib, enzalutamide, combination, ±MG132). Format: cell-based. As to conditions: 786-0R and UMRC2 cells.

Assay [4] deals with T1, androgen receptor. Description: AR expression by immunofluorescence in UMRC2siSPOP cells. Format: cell-based. As to conditions: UMRC2siSPOP compared to UMRC2, in the presence of sunitinib.
A further assay deals with 786-0 tumors. Description: 786-0 RCC tumor model in mice. Format: in vivo.
In assay [5] the test system is KLK2. Description: Human KLK2 ELISA, tissue culture supernatant. As to conditions: in vitro, RCC cell lines. In kind it is cell-based. Background: An ELISA detects its analyte on a solid surface through an enzyme-linked reagent.
The test system of assay [6] is KLK2. Description: KLK2 serum level in RCC PDX models RP-R-02 and RP-R-02LM. In kind it is in vivo, human. As to conditions: sunitinib acquired (RP-R-02) and intrinsic (RP-R-02LM) resistance models.
Assay [7] concerns KLK2. The assay can be described thus: KLK2 ELISA in plasma of kidney cancer patients. As to conditions: kidney cancer patients treated with sunitinib. Format: in vivo, human.
Another assay relates to LNCaP cells. The assay can be described thus: LNCaP cell phenotype and drug activity. In kind it is cell-based. As to conditions: sunitinib-exposed LNCaP cells.
For the next assay, the system named is CDK1. Description: Western blot for CDK1 in RP-R-02LM tumors treated in vivo. As to conditions: RP-R-02LM intrinsically sunitinib-resistant tumors. On the technique in general: In western blotting, separated proteins are transferred to a membrane and probed.
Assay [8] deals with KLK2. The assay can be described thus: Human KLK2 ELISA, serum of 786-0 tumor bearing mice. As to conditions: 786-0 model, end-point. Format: in vivo.
The subject of the next assay is 786-0R cells. The assay can be described thus: Ki67 immunofluorescence staining. Format: cell-based, human. As to conditions: in the presence of sunitinib and enzalutamide. Here is the method: as §1

The structures appear in SMILES notation. Where a SMILES comes first, the peptide text is derived from it. The star is where a group is joined. Cbz = O=C(OCc1ccccc1)*

Description for CDK1: Cells were maintained and cultured in the appropriate media, supplemented with 10% FBS and 1% penicillin and streptomycin. All cells are routinely tested and checked for the absence of mycoplasma. […] Crystal violet assay (Sigma) was used to evaluate cells growth after different time point-treatment, and absorbance was read using a spectrometer (xMarks Spectrometer, Bio-Rad). […] Six-week-old homozygous ICR, Severe Combined Immune-deficient (SCID) female mice were housed in a sterile, pathogen-free facility and maintained in a temperature controlled room, under a 12-hour light/dark schedule with water and food ad libitum. […] All mice were operated under sedation with oxygen, isoflurane and buprenorphine. When tumors were established, and reached 50 mm^2, mice were randomly grouped and placed in either control group or treatment groups (n=5-10). […] Tumor burden was assessed once a week by caliper measurement of two diameters of the tumor (L×W=mm^2) and reported as tumor volume ((L×W2)/2=mm^3). Body weights were assessed using a weighing scale and recorded in grams. Endpoint tumor weights were assessed using a weigh scale and recorded in grams. […]
Whole cell protein extracts from tissue and cell were denatured, separated on SDS-PAGE gels and transferred to nitrocellulose membranes. […] Quantitative measurements of Western blot analysis were performed using ImageJ and Graph-Pad software (Prism 7).

For `CCN(CC)CCNC(=O)c1c(C)[nH]c(/C=C2\C(=O)Nc3ccc(F)cc32)c1C` [sunitinib, N-(2-Diethylaminoethyl)-5-[(Z)-(5-fluoro-2-oxo-1H-indol-3-ylidene)methyl]-2,4-dimethyl-1H-pyrrole-3-carboxamide], the results for the IC50 in the assay with 786-0 cells and with 786-OAR cells were 5.2 µM and 12.3 µM, respectively. Moreover, the “IC50 for sunitinib by AR status” value in assay [1] (AR+ lines (786-0R, UMRC2, Caki2) compared to AR- lines (786-0, ACHN)) was “higher IC50”. The “increased gene expression of KLK2, KLK4, ZBTB16 and MYC” value in assay [2] is recorded as 2-100 fold. In addition, the AR expression entry was “increased” on androgen receptor [3] and “significant increased AR expression” at androgen receptor [4]. In addition, the “angiogenesis (CD31 staining)” value with 786-0 tumors (786-0 tumors) is recorded as “inhibition of angiogenesis”. Moreover, the “proliferation in vivo (Ki67 staining)” value with 786-0 tumors (786-0 tumors) is listed as “continued to proliferate”. For the same molecule, in the assay with 786-0 tumors (second experiment, sunitinib 40 mg/kg), the “time when tumors became resistant to sunitinib (≥50% increase volume from nadir)” value came out at 45 days. Besides, the “KLK2 in tissue culture supernatant” value in the assay with KLK2 [5] was “increased KLK2”. Further, in the assay with KLK2 [6], the KLK2 in serum entry is recorded as “increased”. Besides, the KLK2 in plasma entry in the assay with KLK2 [7] is on record as “increase of KLK2”. In the assay with LNCaP cells, the activity of enzalutamide entry is on record as “increased the activity of enzalutamide”. The CDK1 protein expression entry with CDK1 is listed as “increased CDK1 protein expression”.

On to `CNC(=O)c1ccc(N2C(=S)N(c3ccc(C#N)c(C(F)(F)F)c3)C(=O)C2(C)C)cc1F` [enzalutamide, 4-(3-(4-cyano-3-(trifluoromethyl)phenyl)-5,5-dimethyl-4-oxo-2-thioxoimidazolidin-1-yl)-2-fluoro-N-methylbenzamide], for which the “cell viability, single agent” value in assay [1] (AR+ 786-0R cells) is “did not have a significant effect”. Besides, the “circulating KLK2 levels” value with KLK2 [8] is “decreased”. Besides, in the assay on KLK2 [5], the “KLK2 in tissue culture supernatant” value is listed as “modulated”.

For the molecule `CC(C)C[C@@H](C=O)NC(=O)[C@H](CC(C)C)NC(=O)[C@H](CC(C)C)NC(=O)OCc1ccccc1` [MG132] (Cbz-Leu-Leu-Leu-aldehyde), the “cell proliferation (Ki67 staining)” value with 786-0R cells was “restoration of cell proliferation”.

Broadly, the IC50 is the concentration that gives 50% inhibition.

(Values after patent US20240165078A1, “THERAPEUTIC TARGETING OF RECEPTOR TYROSINE KINASE INHIBITOR-INDUCED ANDROGEN RECEPTOR PHOSPHORYLATION IN CANCER” (Indiana University Research and Technology Corporation, priority 2018, published 2024).)
